Molecules are shown by their SMILES.

Holding throughout (type): cell-based, human
The subject of experiment [1] is peripheral blood mononuclear cells (PBMC) with allogeneic PBMC or RPMI1788 stimulator cells. Briefly: Mixed lymphocyte reaction (MLR) test, [3H]-thymidine incorporation. Particulars: Table 1; 5 days incubation + 16 h thymidine. An excerpt:
(§1) Various models may be used for testing an immunosuppressive effect. In vivo, for example, different transplantation models are available. They are strongly influenced by different immunogenicities, depending on the donor and recipient species used and depending on the nature of the transplanted organ. The survival time of transplanted organs can thus be used to measure the suppression of the immune response. In vitro, the most used models are lymphocyte activation tests. Usually activation is measured via lymphocyte proliferation. Inhibition of proliferation thus always means immunosuppression under the experimental conditions applied. There exist different stimuli for lymphocyte activation: • a) co-culture of lymphocytes of […] (mixed lymphocyte reaction, hereinafter referred as MLR) in a so-called mixed lymphocyte culture test: lymphocytes expressing different minor and major antigens of the HLA-DR type (=alloantigens) activate each other non-specifically. • b) a CD3 assay here there is an activation of the T-lymphocytes via an exogenously added antibody (OKT3).
(§2) All reagents were dissolved in 0.5 ml dimethylsulfoxide (hereinafter referred as DMSO) and further diluted in culture medium before use for the following in vitro experiments. The commercially available culture medium consisted of RPMI-1640+10% foetal calf serum (FCS).
Peripheral blood mononuclear cells (hereinafter referred as PBMC) were isolated from heparinized peripheral blood by density gradient centrifugation over Lymphoprep (Nycomed, Maorstua, Norway). Allogeneic PBMC or Eppstein-Barr Virus-transformed human B cells [commercially available under the trade name RPM11788 (ATCC name CCL156)] which strongly express B7-1 and B7-2 antigens were used as stimulator cells after irradiation with 30 Gy. MLR was performed in triplicate wells. After 5 days incubation at 37° C., 1 μCi [^3 H]-thymidine was added to each cup. After a further 16 hours incubation, cells were harvested and counted in a β-counter. Inhibition of proliferation by a compound (drug) described in some of the previous examples was counted using the formula: [formula] wherein cpm is the thymidine count per minute. Assays for CD3 and CD 28
Background: Incorporation of labelled thymidine or its analogues reports DNA synthesis.

Experiment [2] deals with highly purified T cells stimulated by immobilized anti-CD3 mAb. Briefly: CD3 assay: T-cell proliferation stimulated by anti-CD3 mAb + PMA (BrdU). The following applies: Table 1; anti-CD3 mAb + PMA 0.5 ng/ml, 48 h; read-out: CD 3 IC50.
Text: as §1, §2
(§3) T cells were purified by removing non-T cells. Briefly, monocytes were removed by cold agglutination. The resulting lymphoid cells were further purified by a cell enrichment immunocolumn [Cellect Human T commercially available from Biotex, Edmonton, Alberta, Canada)] by a process of negative selection.
(§4) Highly purified T cells (10^6/ml) were stimulated by immobilized anti-CD3 or anti-CD28 monoclonal antibodies (hereinafter referred as mAb) in the presence of PMA. Anti-CD3 mAb (available from CLB, Amsterdam, Netherlands) were fixed on the 96-microwell plates by incubating the wells with 50 μl of mAb solution (1/800 dilution in culture medium). For anti-CD28 mAb (available from CLB, Amsterdam, Netherlands) 50 μl (1/650 dilution in culture medium) was added directly to the wells. Further, a 20 μl phorbol myristate acetate (hereinafter referred as PMA (commercially available from Sigma, St. Louis, Mo., USA) solution (final concentration: 0.5 ng/ml) was added. Subsequently, 20 μl of a compound described in some of the previous examples were added by serial dilution in triplicate wells. Finally 100 μl of the T-cell suspension (10^6/ml) was added. After 48-hour incubation at 37° C. in 5% CO2 20 μl of a bromo-deuridine (hereinafter referred as BrdU) 100 μM solution (commercially available as Cell Proliferation Elisa from Boehringer-Mannheim Belgium) was added to each well. After a further overnight incubation, T-cell proliferation was measured using a colorimetric immunoassay for qualification of cell proliferation based on the incorporation of BrdU during DNA synthesis. Optical density (hereinafter referred as OD) was measured by a Behring EL311 plate reader at 450 nm (reference wavelength: 690 nm). Inhibition of proliferation by a compound (drug) described in some of the previous examples was counted using the formula: [formula]

Experiment [3] concerns highly purified T cells stimulated by anti-CD28 mAb. Description: CD28 assay: T-cell proliferation stimulated by anti-CD28 mAb + PMA (BrdU). Particulars: Table 1; anti-CD28 mAb + PMA 0.5 ng/ml, 48 h.
Text: as §1, §2, §3, §4

Consider `Cn1c(=O)c2ncc(/C=C/c3ccncc3)nc2n(C)c1=O` [Example 22, 1,3-dimethyl-7-[(E)-2-(pyrid-4-yl)vinyl]lumazine], for which the 50% inhibitory concentration (IC50) in experiment [1] was 75 µM; in experiment [2], 125 µM; in experiment [3] it was 100 µM.

With `C=CCNc1nc2c(nc1C(=O)OCC)c(=O)n(C)c(=O)n2C` [Example 62, 6-ethylcarboxylate-7-(2-propenylamino)-1,3-dimethyl-lumazine], the IC50 in experiment [1] stood at 60 µM; in experiment [2], 92 µM; in experiment [3] it was 56 µM.

In the case of `CCOc1nc2c(nc1-c1ccccc1)c(=O)n(C)c(=O)n2C` [Example 33, 7-ethoxy-1,3-dimethyl-6-phenyllumazine], the IC50 in experiment [1] came out at 40 µM; in experiment [2], 100 µM; in experiment [3], 70 µM.

For `Cn1c(=O)c2nc(-c3ccccc3)c(Cl)nc2n(C)c1=O` [Example 34, 7-chloro-1,3-dimethyl-6-phenyllumazine], the values for the half-maximal inhibitory concentration (IC50) in experiment [1], in experiment [2] and in experiment [3] were 3.75 µM, 0.08 µM and 0.07 µM, respectively.

With `Cn1c(=O)c2ncc(/C=C/c3cccnc3)nc2n(C)c1=O` [Example 21, 1,3-dimethyl-7-[(E)-2-(pyrid-3-yl)vinyl]lumazine], the IC50 in experiment [1] came out at 20 µM; in experiment [2] it was 100 µM; in experiment [3] it was 60 µM.

In the case of `CCOC(=O)c1nc2c(=O)n(C)c(=O)n(C)c2nc1Cl` [Example 48, 6-ethylcarboxylate-7-chloro-1,3-dimethyl-lumazine], the concentration for half-maximal inhibition (IC50) in experiment [1] worked out at 12.5 µM.

For the compound `CC(C)Nc1nc2c(nc1C=O)c(=O)n(C)c(=O)n2C` [Example 66, 6-formyl-7-isopropylamino-1,3-dimethyl-lumazine], the results for the half-maximal inhibitory concentration (IC50) in experiment [1], in experiment [2] and in experiment [3] were 92 µM, 68 µM and 92 µM, respectively.

On to `Cn1c(=O)c2nc(C(Br)C(Br)c3ccccc3)cnc2n(C)c1=O` (stereo not drawn) [Example 8, 6-(1,2-dibromo-2-phenylethyl)-1,3-dimethyllumazine], for which the half-inhibitory concentration (IC50) in experiment [1] is 15 µM; in experiment [3] it was 1.55 µM.

Turning to `CCCn1c(=O)c2nc(-c3ccccc3)c(O)nc2n(CCC)c1=O` [Example 44, 7-hydroxy-6-phenyl-1,3-di-n-propyllumazine], the IC50 in experiment [1] turned out to be 120 µM; in experiment [2] it was 80 µM; in experiment [3], 70 µM.

On to `COc1nc2c(nc1C=Cc1ccccc1)c(=O)n(C)c(=O)n2C` [Example 40, 7-methoxy-1,3-dimethyl-6-styryllumazine], for which the results for the IC50 in experiment [1], in experiment [2] and in experiment [3] were 20 µM, > 200 µM and > 200 µM, respectively.

Regarding `Cn1c(=O)c2nc(C#N)c(-n3ccnc3)nc2n(C)c1=O` [Example 57, 6-cyano-7-imidazolyl-1,3-dimethyl-lumazine], the IC50 in experiment [1] was 48 µM; in experiment [2], 16.8 µM; in experiment [3] it was 15 µM.

In the case of `COC(=O)C(Br)=Cc1cnc2c(n1)c(=O)n(C)c(=O)n2C` [Example 12, 6-(2-bromo-2-methoxycarbonyl-ethenyl)-1,3-dimethyllumazine], the figures for the IC50 in experiment [2] and in experiment [3] were 0.58 µM and 0.08 µM, respectively.

Turning to `Cn1c(=O)c2ncc(/C=C/C=Cc3ccccc3)nc2n(C)c1=O` [Example 23, 1,3-dimethyl-7-[(E)-4-(phenyl)butadienyl]-lumazine], the IC50 in experiment [1] was 30 µM; in experiment [2] it was 110 µM; in experiment [3] it was 80 µM.

With `Cn1c(=O)[nH]c(=O)c2nc(-c3ccccc3)c(-c3ccccc3)nc21` [Example 41, 1-methyl-6,7-diphenyllumazine], the IC50 in experiment [1] was 35 µM; in experiment [2], 25 µM; in experiment [3], 25 µM.

Take `Cn1c(=O)c2ncc(C(Br)C(Br)c3ccccc3)nc2n(C)c1=O` (stereo not drawn) [Example 27, 7-(1,2-dibromo-2-phenylethyl)-1,3-dimethyllumazine]: the values for the concentration for half-maximal inhibition (IC50) in experiment [1] and in experiment [3] were 12 µM and 0.1 µM, respectively.

`Cc1nc2c(nc1NCc1ccccc1)c(=O)n(C)c(=O)n2C` [Example 73, 6-benzylamino-1,3,7-trimethyl-lumazine]: the figures for the IC50 in experiment [1], in experiment [2] and in experiment [3] were 44 µM, 92 µM and 128 µM, respectively.

`Cn1c(=O)c2nc(C(Cl)Cl)c(SCc3ccccc3)nc2n(C)c1=O` [Example 71, 6-dichloromethyl-7-mercaptobenzyl-1,3-dimethyl-lumazine]: the IC50 was 56 µM in experiment [1], > 20 µM in experiment [2] and > 20 µM in experiment [3].

As to `Cn1c(=O)c2nc(O)c(C=O)nc2n(C)c1=O` [Example 46, 6-hydroxy-7-formyl-1,3-dimethyl-lumazine], the concentration for half-maximal inhibition (IC50) came to 72 µM in experiment [1], 104 µM in experiment [2] and 80 µM in experiment [3].

As for `Cn1c(=O)[nH]c2nc(O)c(-c3ccccc3)nc2c1=O` [Example 42, 7-hydroxy-3-methyl-6-phenyllumazine], the values for the IC50 in experiment [1], in experiment [2] and in experiment [3] were 55 µM, 20 µM and 25 µM, respectively.

For `CCCCN(CCCC)c1nc2c(nc1C#N)c(=O)n(C)c(=O)n2C` [Example 56, 6-cyano-7-dibutylamino-1,3-dimethyl-lumazine], the half-maximal inhibitory concentration (IC50) in experiment [1] was 12 µM; in experiment [2], 152 µM; in experiment [3] it was 116 µM.

As to `CCOC(=O)c1nc2c(=O)n(C)c(=O)n(C)c2nc1SCC` [Example 65, 6-ethylcarboxylate-7-mercaptoethyl-1,3-dimethyl-lumazine], the 50% inhibitory concentration (IC50) in experiment [1] was 140 µM; in experiment [2], 116 µM; in experiment [3], 116 µM.

With `COC(=O)C(Br)C(Br)c1cnc2c(n1)c(=O)n(C)c(=O)n2C` (stereo not drawn) [Example 11, 6-(1,2-dibromo-2-(methoxycarbonyl)ethyl)-1,3-dimethyllumazine], the concentration for half-maximal inhibition (IC50) was found to be 12 µM in experiment [1], 0.55 µM in experiment [2] and 0.08 µM in experiment [3].

Turning to `Cn1c(=O)c2nc(C=O)c(N3CCCCCC3)nc2n(C)c1=O` [Example 68, 6-formyl-7-(1-azacycloheptyl)-1,3-dimethyl-lumazine], the results for the 50% inhibitory concentration (IC50) in experiment [1], in experiment [2] and in experiment [3] were 80 µM, 80 µM and 116 µM, respectively.

With `Cn1c(=O)c2nc(/C=C/c3ccncc3)cnc2n(C)c1=O` [Example 7, 1,3-dimethyl-6-[(E)-2-(pyrid-4-yl)vinyl]lumazine], the concentration for half-maximal inhibition (IC50) in experiment [1] was 20 µM; in experiment [2], 150 µM; in experiment [3] it was 150 µM.

As to `COC(=O)C(Br)C(Br)c1cnc2c(=O)n(C)c(=O)n(C)c2n1` (stereo not drawn) [Example 25, 7-[1,2-dibromo-2-(methoxycarbonyl)ethyl)-1,3-dimethyllumazine], the IC50 in experiment [1] is 1.9 µM.

Consider `Cn1c(=O)c2nc(C=Cc3ccc(OC(F)(F)F)cc3)cnc2n(C)c1=O` [Example 80, 6-[2-(p-trifluoromethoxyphenyl)ethenyl]-1,3-dimethyllumazine], for which the concentration for half-maximal inhibition (IC50) in experiment [1] is 9 µM.

For `Cn1c(=O)c2nc(C=O)c(N3CCSCC3)nc2n(C)c1=O` [Example 69, 6-formyl-7-thiomorpholino-1,3-dimethyl-lumazine], the figures for the IC50 in experiment [1], in experiment [2] and in experiment [3] were 116 µM, 80 µM and 116 µM, respectively.

`CCOC(=O)CSc1nc2c(nc1C#N)c(=O)n(C)c(=O)n2C` [Example 81, 6-cyano-7-ethylmercaptoacetate-1,3-dimethyllumazine]: the half-inhibitory concentration (IC50) in experiment [1] amounted to 12.2 µM.

`Cn1c(=O)c2ncc(Cl)nc2n(C)c1=O` [Example 31, 7-chloro-1,3-dimethyllumazine]: the IC50 is 12 µM in experiment [1] and 0.1 µM in experiment [3].

As usually defined, the IC50 is the concentration needed to halve the response being measured.

Source of the values: patent publication US6946465B2, “Immunosuppressive effects of pteridine derivatives” (4 AZA Bioscience NV, priority 1999, dated 2005).
